Experimental data from patent US5200412A, “Heterobicyclic containing benzene sulfonamides which are platelet activating factor antagonists” (British Bio-Technology Limited, priority 1990, dated 1993).

What was measured:
[1] = test system: PAF-induced bronchoconstriction; test: inhibition of PAF-induced bronchoconstriction in the guinea pig; assay type: in vivo, Male Dunkin-Hartley guinea-pigs; settings: 10 mg/kg p.o., 1 hour before PAF 40 ng/kg/min i.v. infusion
Experimental: The inhibition of PAF induced bronchoconstriction was measured in anaesthetised artificially ventilated guinea-pigs (450-500 g) using a modified version of the Konzett-Rossler technique (Konzett M and Rossler R, Naunym-Schmiedeb. Arch. Exp. Pathol. Pharmakol., 1940, 197, 71) Male Dunkin-Hartley guinea-pigs were anaesthetised with urethane, 1.6 g/kg. Through a midline neck incision, the trachea was cannulated and the animal ventilated with a constant tidal volume set between 5 and 15 ml, to give a tracheal inflation pressure of 15 mmHg at a rate of 40 per minute. A carotid artery was cannulated for the measurement of blood pressure and heart rate and both jugular veins were cannulated, one for the infusion of PAF and the other for the administration of test compounds. PAF, 40 ng/kg/min in saline with 0.25% bovine serum albumin, was infused i.v. to produced a 100% increase in tracheal inflation pressure, and bronchoconstrictor effects were determined. Test compounds were administered p.o. (10 mg/kg) 1 hour before the infusion of PAF was started whilst the animals were conscious.

PAF-induced hypotension = test: reversal of PAF-induced hypotension in the rat; assay type: in vivo, Male Sprague-Dawley rats; settings: iv, anaesthetised rats, i.v. bolus, PAF 100 ng/kg/min i.v. infusion, read-out: ED50 (50% reversal of the hypotensive PAF response)
Experimental: (§1) Compounds of general formula I inhibit PAF-induced functions in both the cellular and tissue levels by changing the PAF binding to its specific receptor site. The ability of compounds of general formula I to inhibit the binding of PAF to its specific receptor binding site on human platelet plasma membranes was measured according to Pharmacological Example 1. The ability of compounds of general formula I to reverse the hypotension caused by an infusion of PAF in rats was measured according to Pharmacology Example 2.
Male Sprague-Dawley rats (300-350 g) were anaesthetised with a mixture of sodium pentobarbitone, 22.5 mg/kg and thiopental 62.5 mg/kg. Through a midline incision in the neck, the trachea was cannulated and the animals, breathed spontaneously. A carotid artery was cannulated for the measurement of blood pressure and this signal was used to trigger a rate meter to measure heart rate. Both jugular veins were cannulated: one for the infusion of PAF and the other for the bolus administration of test compounds.
PAF, 100 ng/kg/min was infused i.v. until a sustained fall in mean blood pressure of 50 mmHg was achieved. […] Also presented in Table 2 is the result for a comparative example (N-cyclohexyl-N-methyl-4-(1H-imidazo[4,5-c]pyridylmethyl)benzamide. This compound (a PAF antagonist described in EP-A-0260613) is not within the scope of the invention.

PAF receptor = target: T1, PAF receptor (Homo sapiens, UniProt P25105); test: inhibition of 3H-PAF binding to human platelet plasma membrane; settings: human platelet membranes, 0.5 nM 3H-PAF, 1 hour incubation at 0° C., pH 7.0
T1 construct: Platelet concentrates were obtained from a hospital blood bank; from tissue; host or cells: human platelets (hospital blood bank concentrates), lysed platelet membrane fraction
Experimental: as §1
The inhibition of 3H-PAF binding to human platelet plasma membrane by compounds of general formula I was determined by isotopic labelling and filtration techniques. Platelet concentrates were obtained from a hospital blood bank. These platelet concentrates (500-2500 ml.) were centrifuged at 800 rpm for 10 minutes in a SORVALL RC3B centrifuge to remove the red blood cells present. (The word SORVALL is a trade mark ) The supernatant was subsequently centrifuged at 3,000 rpm in a SORVALL RC3B centrifuge to pellet the platelets present. The platelet rich pellets were resuspended in a minimum volume of buffer (150 mM NaCl, 10 mM Tris, 2 mM EDTA, pH 7.5) and layered onto Ficoll-Paque gradients, 9 ml platelet concentrate to 2 ml Ficoll, and centrifuged at 1,900 rpm for 15 minutes in a SORVALL RT6000 centrifuge. This step removes the residual red blood cells and other nonspecific material such as lymphocytes from the preparation. The platelets which form a band between the plasma and the Ficoll were removed, resuspended in the above buffer and centrifuged at 3,000 rpm for 10 minutes in a SORVALL RT6000 centrifuge. The pelleted platelets were resuspended in buffer (10 mM Tris, 5 mM MgCl2, 2 mM EDTA, pH 7.0), snap freezed in liquid N2 and allowed to thaw slowly at room temperature in order to lyse the platelets. The latter step was repeated at least 3 times to ensure proper lysis. The lysed platelets were centrifuged at 3,000 rpm for 10 minutes in a SORVALL RT6000 centrifuge and resuspended in buffer. The latter step was repeated twice in order to remove any cytoplasmic proteins which may hydrolyse the platelet activating factor (PAF) receptor The prepared platelet membranes may be stored at -70° C. After thawing the prepared membranes were centrifuged in a SORVALL RT6000 at 3,000 rpm for 10 minutes and resuspended in assay buffer.
The assay was conducted by preparing a series of Tris-buffered solutions of the selected antagonist of predetermined concentrations. Each of these solutions contained ^3 H-PAF (0.5 nM; 1-O-[^3 H]octadecyl-2-acetyl-sn-glycero-3-phosphoryl choline with a specific activity of 132 Ci/mmol), […], a known amount of the test antagonist, and a sufficient amount of Tris-buffer solution (10 mM Tris, 5 mM MgCl2, pH 7.0, 0.25% BSA) to make the final volume 1 ml. Incubation was initiated by the addition of 100 μg of the isolated membrane fraction to each of the above solutions at 0° C. Two control samples, one (Cl) which contained all the ingredients described above except the antagonist and the other (C2) contains Cl plus a 1000-fold excess of unlabelled PAF, were also prepared and incubated simultaneously with the test samples. After 1 hour incubation, each solution was filtered rapidly under vacuo through a WHATMAN GF/C glass fibre filter in order to separate unbound PAF from bound PAF. (The word WHATMAN is a trade mark.) The residue in each case was rapidly washed 4 times with 5 ml cold (4° C.) Tris-buffer solution. Each washed residue was dried under vacuum on a sampling manifold and placed into vials containing 20 ml of OPTIPHASE MP scintillation fluid and the radioactivity counted in a liquid scintillation counter. […]

[2] = test system: endotoxin induced hypotension; test: reversal of endotoxin induced hypotension in the rat; assay type: in vivo; settings: iv, read-out: ED50 (50% reversal of the endotoxin induced hypotension)
Experimental: Rats were anaesthetised with a mixture of sodium pentobarbitone, 22.5 mg/kg, and thiopental, 62.5 mg/kg. The animals breathed spontaneously, air enriched with oxygen, and a carotid artery was cannulated for the measurement of blood pressure and heart rate. […] Test compounds were administered i.v. via the other jugular vein as a bolus.

T1 sequence (P25105 whole entry): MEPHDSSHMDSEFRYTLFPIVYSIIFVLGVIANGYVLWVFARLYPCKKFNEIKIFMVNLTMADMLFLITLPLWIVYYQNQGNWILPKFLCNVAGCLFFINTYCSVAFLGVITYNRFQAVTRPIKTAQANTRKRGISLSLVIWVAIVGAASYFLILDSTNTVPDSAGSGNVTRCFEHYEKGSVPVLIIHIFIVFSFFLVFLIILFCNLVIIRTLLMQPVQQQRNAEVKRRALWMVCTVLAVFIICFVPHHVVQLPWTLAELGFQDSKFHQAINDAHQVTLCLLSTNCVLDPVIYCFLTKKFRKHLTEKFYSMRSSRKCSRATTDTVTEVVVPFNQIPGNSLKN

| Compound | % Inhibition of PAF-induced bronchoconstriction [1] | ED50 (PAF-induced hypotension) | IC50 (PAF receptor) | ED50 [2] |
| --- | --- | --- | --- | --- |
| C=CCN([C@@H](CC(C)C)C(=O)OCC)S(=O)(=O)c1ccc(Cn2c(C)nc3cnccc32)cc1 [60(B), N-Allyl-N-4-(1H-2-methylimidazo[4,5-c]pyridylmethyl)phenylsulphonyl-L-leucine ethyl ester] | 60% | – | – | – |
| CCOC(=O)[C@H](CC(C)C)N(CC(=O)OC(C)(C)C)S(=O)(=O)c1ccc(Cn2c(C)nc3cnccc32)cc1 [69(B), N-t-butoxycarbonylmethyl-N-4-(1H-2-methylimidazo[4,5-c]pyridylmethyl)phenylsulphonyl-L-leucine ethyl ester] | 60% | – | – | – |
| CN(C(=O)c1ccc(Cn2cnc3cnccc32)cc1)C1CCCCC1 [Comparative Example, N-Cyclohexyl-N-methyl-4-(1H-imidazo[4,5-c]pyridylmethyl)benzamide, reference compound] | – | 150 µg/kg | – | – |
| CC[C@H](C)[C@H](NS(=O)(=O)c1ccc(Cn2c(C)nc3ccccc32)cc1)C(=O)OC [Example 6, N-4-(1H-2-Methylbenzimidazolylmethyl)phenylsulphonyl-L-isoleucine methyl ester] | – | – | 30 nM | – |
| COC(=O)[C@H](CC(C)C)NS(=O)(=O)c1ccc(Cn2c(C)nc3ccccc32)cc1 [Example 7, N-4-(1H-2-Methylbenzimidazolylmethyl)phenylsulphonyl-L-leucine methyl ester] | – | 11.6 µg/kg | 20 nM | – |
| COC(=O)[C@H](COCc1ccccc1)NS(=O)(=O)c1ccc(Cn2c(C)nc3ccccc32)cc1 [Example 12, N-4-(1H-2-Methylbenzimidazolylmethyl)phenylsulphonyl-O-benzyl-L-serine methyl ester] | – | 21 µg/kg | – | – |
| CCOC(=O)[C@H](CC(C)C)NS(=O)(=O)c1ccc(Cn2c(C)nc3ccccc32)cc1 [Example 14, N-4-(1H-2-Methylbenzimidazolylmethyl)phenylsulphonyl-L-leucine ethyl ester] | – | – | 15 nM | – |
| COC(=O)[C@H](CC(C)C)NS(=O)(=O)c1ccc(Cn2c(C)nc3cnccc32)cc1 [Example 32B, N-4-(1H-2-methylimidazo[4,5-c]pyridylmethyl)phenylsulphonyl-L-leucine methyl ester] | – | 2.1 µg/kg | 8 nM | 15.5 µg/kg |
| CCOC(=O)[C@H](CC(C)C)NS(=O)(=O)c1ccc(Cn2c(C)nc3cnccc32)cc1 [Example 35B, N-4-(1H-2-methylimidazo[4,5-c]pyridylmethyl)phenylsulphonyl-L-leucine ethyl ester] | – | – | 0.2 nM | 2.9 µg/kg |
| CCOCCOC(=O)[C@H](CC(C)C)NS(=O)(=O)c1ccc(Cn2c(C)nc3ccncc32)cc1 [Example 42A, N-4-(3H-2-Methylimidazo[4,5-c]pyridylmethyl)phenylsulphonyl-L-leucine 2-ethoxyethyl ester] | – | – | 2 nM | – |
| Cc1nc2cnccc2n1Cc1ccc(S(=O)(=O)N[C@@H](CC(C)C)C(=O)OCCOCc2ccccc2)cc1 [Example 43B, N-4-(1H-2methylimidazo[4,5-c]pyridylmethyl)phenylsulphonyl-L-leucine 2-benzoxyethyl ester] | – | – | 1 nM | – |
| CCOC(=O)[C@H](CC(C)C)N(C)S(=O)(=O)c1ccc(Cn2c(C)nc3cnccc32)cc1 [Example 53B, N-Methyl-N-4-(1H-2-methylimidazo[4,5-c]pyridylmethyl)phenylsulphonyl-L-leucine ethyl ester] | 91% | 0.5 µg/kg | 0.15 nM | – |
| CCOC(=O)[C@H](CC(C)C)N(C)S(=O)(=O)c1ccc(Cn2c(C)nc3ccccc32)cc1 [Example 54, N-Methyl-N-4-(1H-2-methylbenzimidazolylmethyl)phenylsulphonyl-L-leucine ethyl ester] | – | – | 3 nM | – |
| Cc1nc2cnccc2n1Cc1ccc(S(=O)(=O)N(C)[C@@H](CC(C)C)C(=O)OC(C)C)cc1 [Example 56B, N-Methyl-N-4-(1H-2-methylimidazo[4,5-c]pyridylmethyl)phenylsulphonyl-L-leucine i-propyl ester] | 72% | 0.6 µg/kg | – | – |
| CCCCOC(=O)[C@H](CC(C)C)N(C)S(=O)(=O)c1ccc(Cn2c(C)nc3cnccc32)cc1 [Example 57B, N-methyl-N-4-(1H-2-methylimidazo[4,5-c]pyridylmethyl)phenylsulphonyl-L-leucine n-butyl ester] | – | – | 1 nM | – |
